Measurements reported in PubChem BioAssay AID1918947 (Molecular Pharmacology Branch, DTP, NCI, 2023).

What follows are compounds tested on A498 complex spheroid viability (assay: Anticancer human tumor A498 cell line growth inhibition). Conditions: second compound 0.1 µM; first compound 0.3 µM; hits give low values.
Excerpt: Multicellular complex tumor spheroid response to LSD1 Inhibitor Iadademstat in combination with a variety of drugs and investigational agents in selected tumor cell lines
The current study was undertaken to assess response to LSD1 inhibitors in combination with standard-of-care drugs and investigational agents in solid tumor complex spheroid models as well as in the K-562 leukemia. Complex spheroids include a stromal component modeled by human endothelial cells (HUVEC) and fibroblasts modeled by human mesenchymal stem cells (MSCs). The concentration ranges selected for each drug and investigational agent were based upon clinically achievable concentrations if the clinical Cmax of the agent was known.
Compounds. The drugs and investigational agents used in this study are listed on Table 1. All of the agents used, including staurosporine (NSC755774) and gemcitabine (NSC613327), were obtained from the Developmental Therapeutics Program, NCI. FDA-approved anticancer drugs are available from the NCI at http://dtp.nci.nih.gov/branches/dscb/oncology_drugset_explanation.html. Drugs and investigational agents were >95% pure by proton nuclear magnetic resonance (NMR) and liquid chromatography/mass spectrometry (LC/MS). Stock solutions were prepared at 400x in DMSO, stored at -70 degrees C, and diluted in fresh medium prior to their use. The final concentration of DMSO in cell culture wells never exceeded 0.25% (v/v). The FDA-approved anticancer drug set is available from the Developmental Therapeutics Program at https://dtp.cancer.gov/organization/dscb/obtaining/available_plates.htm. All drugs and investigational agents were tested over a range starting from a high concentration at or near the clinical Cmax and decreasing in half-log increments. If the clinical Cmax for an agent had not been determined, the highest concentration tested was 10 microM.
Cell Lines. The patient-derived cancer cell (PDC) lines: 292921-168-R-J2-PDC, K24384-001-R-PDC, and 521955-158-R2-J5-PDC pancreatic carcinomas, 556581-035-R-J1 ovarian carcinoma, 324938-238-R-J1-PDC, 855422-203-R-J1-PDC and 883617-216-R-J1-PDC urothelial bladder carcinomas, 743489-274-T-PDC renal cell carcinoma, 138582-R-J1 Merkel cell tumor, K60290-347-R-J1 and K57222-313-R-J1-PDC glioblastomas, 653999-131-R-J2-PDC, LG0703-F948-PDC, and 349418-098-R-PDC non-small cell lung carcinomas, 885512-296-R-J2-PDC, 171881-019-R-J1-PDC breast carcinomas and 186277-243-T-J2-PDC and 233499-124-R-J2-PDC colon carcinomas were obtained from the NCI Patient-Derived Models Repository (PDMR, https://pdmr.cancer.gov). The established cell lines NCI/ADR-RES (RRID:CVCL_14520 and OVCAR-5 (RRID:CVCL_1628) ovarian carcinomas, 786-O (RRID:CVCL_1051) and A498 (RRID:CVCL_A498) renal cell carcinoma, NCI-H211 (ATCC, cat. CRL-5824; RRID:CVCL_1529), NCI-H196 (ATCC, cat. CRL-5823, RRID:CVCL_1509), SW 1271 (ATCC, cat. CRL-2177, RRID:CVCL_1716) and NCI-H1876 (ATCC, cat. CRL-5902, RRID:CVCL_1503) small cell lung carcinomas, MDA-MB-231 (RRID:CVCL_0062) and MDA-MB-468 (RRID:CVCL_0419)breast carcinomas (10-12). Pooled donor human umbilical vein endothelial cells (HUVEC, Lonza, cat. CC-2519) and human mesenchymal stem cells (hMSC, Lonza, cat. PT-2501) were purchased from Lonza (Walkersville, MD).
Cell Culture. All cells were maintained in an incubator at 37 degrees C and 5% CO2 with 95% humidity. The PDC lines were cultured according to standard operating procedures established by the NCI PDMR (https://pdmr.cancer.gov). Briefly all PDCs were thawed and cultured in Matrigel-coated flasks prepared with a working solution of 1X Ham's F-12 nutrient mix, without supplementation (Invitrogen, Waltham, MA, cat. 11765054), 100 U/mL penicillin-streptomycin (Invitrogen, cat. 15140122), and 2.5% Matrigel (Corning Inc., Corning, NY, cat. 354248) for the first three passages. […]
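Note: spheroids exposed to agents for seven days before readout; 100% = DMSO vehicle-treated spheroids.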

Row | Structure (SMILES) | viability, T/C [%]
1 | NS(=O)(=O)OCC1CC(n2ccc3c(NC4CCc5ccccc54)ncnc32)CC1O (stereo not given) + NC1CC1c1ccc(-c2cccc(O)c2)cc1 | 23.4

Same assay, conditions: second compound 0.1 µM; first compound 0.949 µM; hits give low values

Row | Structure (SMILES) | viability, T/C [%]
2 | COc1cc(C2c3cc4c(cc3C(OC3OC5COC(C)OC5C(O)C3O)C3COC(=O)C23)OCO4)cc(OC)c1O (stereo not given) + NC1CC1c1ccc(-c2cccc(O)c2)cc1 | 58.2
3 | Nc1ccccc1NC(=O)c1ccc(CNC(=O)OCc2cccnc2)cc1 + NC1CCC(NC2CC2c2ccccc2)CC1 | 15.4
4 | O=C(C=Cc1cccc(S(=O)(=O)Nc2ccccc2)c1)NO + NC1CC1c1ccc(-c2cccc(O)c2)cc1 | 32.4
5 | NS(=O)(=O)OCC1CC(n2ccc3c(NC4CCc5ccccc54)ncnc32)CC1O (stereo not given) + NC1CC1c1ccc(-c2cccc(O)c2)cc1 | 15.9

Same assay, conditions: second compound 0.1 µM; first compound 3 µM; hits give low values

Row | Structure (SMILES) | viability, T/C [%]
6 | COc1cc(C2c3cc4c(cc3C(OC3OC5COC(C)OC5C(O)C3O)C3COC(=O)C23)OCO4)cc(OC)c1O (stereo not given) + NC1CC1c1ccc(-c2cccc(O)c2)cc1 | 44.4
7 | Nc1ccccc1NC(=O)c1ccc(CNC(=O)OCc2cccnc2)cc1 + NC1CCC(NC2CC2c2ccccc2)CC1 | 1.76
8 | O=C(C=Cc1cccc(S(=O)(=O)Nc2ccccc2)c1)NO + NC1CC1c1ccc(-c2cccc(O)c2)cc1 | 7.4
9 | NS(=O)(=O)OCC1CC(n2ccc3c(NC4CCc5ccccc54)ncnc32)CC1O (stereo not given) + NC1CC1c1ccc(-c2cccc(O)c2)cc1 | 12.4

Same assay, conditions: second compound 0.316 µM; first compound 0.00949 µM; hits give low values

Row | Structure (SMILES) | viability, T/C [%]
10 | COc1cc(C2c3cc4c(cc3C(OC3OC5COC(C)OC5C(O)C3O)C3COC(=O)C23)OCO4)cc(OC)c1O (stereo not given) + NC1CC1c1ccc(-c2cccc(O)c2)cc1 | 87.3
11 | Nc1ccccc1NC(=O)c1ccc(CNC(=O)OCc2cccnc2)cc1 + NC1CCC(NC2CC2c2ccccc2)CC1 | 86.7
12 | O=C(C=Cc1cccc(S(=O)(=O)Nc2ccccc2)c1)NO + NC1CC1c1ccc(-c2cccc(O)c2)cc1 | 105
13 | NS(=O)(=O)OCC1CC(n2ccc3c(NC4CCc5ccccc54)ncnc32)CC1O (stereo not given) + NC1CC1c1ccc(-c2cccc(O)c2)cc1 | 100

Same assay, conditions: second compound 0.316 µM; first compound 0.03 µM; hits give low values

Row | Structure (SMILES) | viability, T/C [%]
14 | COc1cc(C2c3cc4c(cc3C(OC3OC5COC(C)OC5C(O)C3O)C3COC(=O)C23)OCO4)cc(OC)c1O (stereo not given) + NC1CC1c1ccc(-c2cccc(O)c2)cc1 | 74.7
15 | Nc1ccccc1NC(=O)c1ccc(CNC(=O)OCc2cccnc2)cc1 + NC1CCC(NC2CC2c2ccccc2)CC1 | 83.8
16 | O=C(C=Cc1cccc(S(=O)(=O)Nc2ccccc2)c1)NO + NC1CC1c1ccc(-c2cccc(O)c2)cc1 | 93.2
17 | NS(=O)(=O)OCC1CC(n2ccc3c(NC4CCc5ccccc54)ncnc32)CC1O (stereo not given) + NC1CC1c1ccc(-c2cccc(O)c2)cc1 | 78.5

Same assay, conditions: second compound 0.316 µM; first compound 0.0949 µM; hits give low values

Row | Structure (SMILES) | viability, T/C [%]
18 | COc1cc(C2c3cc4c(cc3C(OC3OC5COC(C)OC5C(O)C3O)C3COC(=O)C23)OCO4)cc(OC)c1O (stereo not given) + NC1CC1c1ccc(-c2cccc(O)c2)cc1 | 68.7
19 | Nc1ccccc1NC(=O)c1ccc(CNC(=O)OCc2cccnc2)cc1 + NC1CCC(NC2CC2c2ccccc2)CC1 | 66.4
20 | O=C(C=Cc1cccc(S(=O)(=O)Nc2ccccc2)c1)NO + NC1CC1c1ccc(-c2cccc(O)c2)cc1 | 76.9
21 | NS(=O)(=O)OCC1CC(n2ccc3c(NC4CCc5ccccc54)ncnc32)CC1O (stereo not given) + NC1CC1c1ccc(-c2cccc(O)c2)cc1 | 39.6

Same assay, conditions: second compound 0.316 µM; first compound 0.3 µM; hits give low values

Row | Structure (SMILES) | viability, T/C [%]
22 | COc1cc(C2c3cc4c(cc3C(OC3OC5COC(C)OC5C(O)C3O)C3COC(=O)C23)OCO4)cc(OC)c1O (stereo not given) + NC1CC1c1ccc(-c2cccc(O)c2)cc1 | 58.6
23 | Nc1ccccc1NC(=O)c1ccc(CNC(=O)OCc2cccnc2)cc1 + NC1CCC(NC2CC2c2ccccc2)CC1 | 44.6
24 | O=C(C=Cc1cccc(S(=O)(=O)Nc2ccccc2)c1)NO + NC1CC1c1ccc(-c2cccc(O)c2)cc1 | 53.3
25 | NS(=O)(=O)OCC1CC(n2ccc3c(NC4CCc5ccccc54)ncnc32)CC1O (stereo not given) + NC1CC1c1ccc(-c2cccc(O)c2)cc1 | 21.4

Same assay, conditions: second compound 0.316 µM; first compound 0.949 µM; hits give low values

Row | Structure (SMILES) | viability, T/C [%]
26 | COc1cc(C2c3cc4c(cc3C(OC3OC5COC(C)OC5C(O)C3O)C3COC(=O)C23)OCO4)cc(OC)c1O (stereo not given) + NC1CC1c1ccc(-c2cccc(O)c2)cc1 | 55.6
27 | Nc1ccccc1NC(=O)c1ccc(CNC(=O)OCc2cccnc2)cc1 + NC1CCC(NC2CC2c2ccccc2)CC1 | 17
28 | O=C(C=Cc1cccc(S(=O)(=O)Nc2ccccc2)c1)NO + NC1CC1c1ccc(-c2cccc(O)c2)cc1 | 34.3
29 | NS(=O)(=O)OCC1CC(n2ccc3c(NC4CCc5ccccc54)ncnc32)CC1O (stereo not given) + NC1CC1c1ccc(-c2cccc(O)c2)cc1 | 15.6

Same assay, conditions: second compound 0.316 µM; first compound 3 µM; hits give low values

Row | Structure (SMILES) | viability, T/C [%]
30 | COc1cc(C2c3cc4c(cc3C(OC3OC5COC(C)OC5C(O)C3O)C3COC(=O)C23)OCO4)cc(OC)c1O (stereo not given) + NC1CC1c1ccc(-c2cccc(O)c2)cc1 | 51.3
31 | Nc1ccccc1NC(=O)c1ccc(CNC(=O)OCc2cccnc2)cc1 + NC1CCC(NC2CC2c2ccccc2)CC1 | 1.4
32 | O=C(C=Cc1cccc(S(=O)(=O)Nc2ccccc2)c1)NO + NC1CC1c1ccc(-c2cccc(O)c2)cc1 | 7.34
33 | NS(=O)(=O)OCC1CC(n2ccc3c(NC4CCc5ccccc54)ncnc32)CC1O (stereo not given) + NC1CC1c1ccc(-c2cccc(O)c2)cc1 | 12

Same assay, conditions: second compound 1 µM; first compound 0.00949 µM; hits give low values

Row | Structure (SMILES) | viability, T/C [%]
34 | COc1cc(C2c3cc4c(cc3C(OC3OC5COC(C)OC5C(O)C3O)C3COC(=O)C23)OCO4)cc(OC)c1O (stereo not given) + NC1CC1c1ccc(-c2cccc(O)c2)cc1 | 76.7
35 | Nc1ccccc1NC(=O)c1ccc(CNC(=O)OCc2cccnc2)cc1 + NC1CCC(NC2CC2c2ccccc2)CC1 | 76.8
